# According to patent US7208526B2, “Styrylsulfonamides” (Hoffmann-La Roche Inc., priority 2005, dated 2007):
# pIC50: −log10 of the molar value. Structures can show the parent of a compound that is named as a salt.
# Tested on: HCT 116 cells (human colon carcinoma, ATCC-No. CCl-247)
# Assay: Viability assay in HCT 116 cells (CellTiter-Glo Luminescent Cell Viability Assay)
# Type: cell-based
# Details: 10 concentrations 30 μM to 0.0015 μM, incubation 120 h (5 days), luminescence (ATP), triplicate
# From the text: Viability Assay in HCT 116 Cells
# This assay is a homogeneous method of determining the number of viable cells in culture based on quantitation of the ATP present, an indicator of metabolically active cells. The assay is designed for use with multiwell formats, making it ideal for automated high-throughput screening (HTS), cell proliferation and cytotoxicity assays. The homogeneous assay procedure involves adding a single reagent (containing luciferase, luciferan substrate, and buffer) directly to cells cultured in serum-supplemented medium. Cell washing, removal of medium and multiple pipetting steps are not required. The system detects as few as 15 cells/well in a 384-well format in 10 minutes after adding reagent and mixing.
# The homogeneous “add-mix-measure” format results in cell lysis and generation of a luminescent signal proportional to the amount of ATP present. The amount of ATP is directly proportional to the number of cells present in culture. The above-referenced assay generates a “glow-type” luminescent signal, produced by the luciferase reaction, which has a half-life generally greater than five hours, depending on cell type and medium used. The extended half-life eliminates the need to use reagent injectors and provides flexibility for continuous or batch mode processing of multiple plates. The unique homogeneous format avoids errors that may be introduced by other ATP measurement methods that require multiple steps.
# For the assay the cells were seeded in 384 well plates, 1000 cells per well, in the same medium. […] After 5 days the viability assay was done according to the instructions of the manufacturer. In brief: the cell-plate was equilibrated to room temperature for approximately 30 minutes and then reagent (containing luciferase, luciferan substrate, and buffer) was added. The contents were carefully mixed for 15 minutes to induce cell lysis. After 45 minutes the luminescent signal was measured in Victor 2, (scanning multiwell spectrophotometer, Wallac).
# In order to achieve a final concentration of 30 μM as highest concentration […] of 10 mM compound stock solution were added directly to 163 μl media. Then step e) of the dilution procedure described below, was followed.
# Analysis: • Add 30 μl of reagent containing luciferase, luciferan substrate, and buffer per well, • shake 15 minutes at room temperature • incubate further 45 minutes at room temperature without shaking
# Measurement: • Victor 2 scanning multiwell spectrophotometer (Wallac), Luminescence mode (0.5 sec/read, 477 nm) • Determine IC50 using a non-linear curve fit (XLfit® software [ID Business Solution Ltd., Guilford, Surrey, UK])
row,pIC50,SMILES
1,4.82 to 6.30,"O=C(NS(=O)(=O)/C=C/c1c(F)cc(F)cc1F)c1ccc(Cl)cc1Cl [Example 1-36, (E)-2-(2,4,6-Trifluoro-phenyl)-ethenesulfonic acid 2,4-dichloro-benzoylamide; sodium salt]"
2,4.82 to 6.30,"Cc1ccc(C(=O)NS(=O)(=O)/C=C/c2ccc(Cl)c(Cl)c2)c(Br)c1 [Example 4-16, (E)-2-(3,4-Dichloro-phenyl)-ethenesulfonic acid 2-bromo-4-methyl-benzoylamide; sodium salt]"
3,4.82 to 6.30,"O=C(NS(=O)(=O)/C=C/c1ccc(F)cc1F)c1ccc(F)cc1Cl [Example 1-17, (E)-2-(2,4-Difluoro-phenyl)-ethenesulfonic acid 2-chloro-4-fluoro-benzoylamide; sodium salt]"
4,4.82 to 6.30,"O=C(NS(=O)(=O)/C=C/c1ccccc1Cl)c1ccc(C(F)(F)F)cc1C(F)(F)F [Example 1-30, (E)-2-(2-Chlorophenyl)-ethenesulfonic acid 2,4-bis-trifluoromethyl-benzoylamide; sodium salt]"
5,4.82 to 6.30,"C/C(=C\c1ccccc1)S(=O)(=O)NC(=O)c1ccc(Cl)cc1Cl [Example 2-1, (E)-1-Phenyl-propene-2-sulfonic acid 2,4-dichloro-benzoylamide]"
6,4.82 to 6.30,"COc1ccccc1/C=C/S(=O)(=O)NC(=O)c1ccc(C(F)(F)F)cc1C(F)(F)F [Example 1-28, (E)-2-(2-Methoxy-phenyl)-ethenesulfonic acid 2,4-bis-trifluoromethyl-benzoylamide; sodium salt]"
7,4.82 to 6.30,"O=C(NS(=O)(=O)/C=C/c1ccc(C(F)(F)F)cc1)c1ccc(F)cc1Br [Example 4-17, (E)-2-(4-Trifluoromethyl-phenyl)-ethenesulfonic acid 2-bromo-4-fluoro-benzoylamide; sodium salt]"
8,4.82 to 6.30,"O=C(NS(=O)(=O)/C=C/c1ccc(C(F)(F)F)cc1)c1ccc(F)cc1C(F)(F)F [Example 1-42, (E)-2-(4-Trifluoromethyl-phenyl)-ethenesulfonic acid 4-fluoro-2-trifluoromethyl-benzoylamide; sodium salt]"
9,4.82 to 6.30,"O=C(NS(=O)(=O)/C=C/c1ccccc1)c1ccc(F)cc1Br [Example 6-2, (E)-2-Phenyl-ethenesulfonic acid 2-bromo-4-fluoro-benzoylamide; sodium salt]"
10,4.82 to 6.30,"O=C(NS(=O)(=O)/C=C/c1ccccc1Cl)c1ccc(F)cc1C(F)(F)F [Example 1-23, (E)-2-(2-Chlorophenyl)-ethenesulfonic acid 4-fluoro-2-trifluoromethyl-benzoylamide; sodium salt]"
11,4.82 to 6.30,"COc1cc(C(F)(F)F)ccc1C(=O)NS(=O)(=O)/C=C/c1ccccc1 [Example 5-6, (E)-2-Phenyl-ethenesulfonic acid 2-methoxy-4-trifluoromethyl-benzoylamide]"
12,4.82 to 6.30,"COc1cc(Cl)ccc1C(=O)NS(=O)(=O)C=Cc1ccccc1 [Example 6-1, 2-Phenyl-ethenesulfonic acid 4-chloro-2-methoxy-benzoylamide]"
13,4.82 to 6.30,"Cc1cc(Cl)ccc1C(=O)NS(=O)(=O)/C=C/c1ccccc1 [Example 6-6, (E)-2-Phenyl-ethenesulfonic acid 4-chloro-2-methyl-benzoylamide; sodium salt]"
14,4.82 to 6.30,"O=C(NS(=O)(=O)/C=C/c1ccccc1O)c1ccc(Cl)cc1Cl [Example 1-33, (E)-2-(2-Hydroxy-phenyl)-ethenesulfonic acid 2,4-dichloro-benzoylamide]"
15,4.82 to 6.30,"CN(C)c1ccccc1/C=C/S(=O)(=O)NC(=O)c1ccc(Cl)cc1Cl [Example 1-13, (E)-2-(2-Dimethylamino-phenyl)-ethenesulfonic acid 2,4-dichloro-benzoylamide]"
16,4.82 to 6.30,"O=C(NS(=O)(=O)C=Cc1ccccc1)c1ccc(Cl)cc1F [Example 1-43, 2-Phenyl-ethenesulfonic acid 4-chloro-2-fluoro-benzoylamide]"
17,4.82 to 6.30,"O=C(NS(=O)(=O)/C=C/c1ccc(OC(F)(F)F)cc1)c1ccc(F)cc1Br [Example 4-22, (E)-2-(4-Trifluoromethoxyphenyl)-ethenesulfonic acid 2-bromo-4-fluoro-benzoylamide; sodium salt]"
18,4.82 to 6.30,"Cc1cc(Cl)ccc1C(=O)NS(=O)(=O)/C=C/c1ccccc1Cl [Example 4-2, (E)-2-(2-Chlorophenyl)-ethenesulfonic acid 4-chloro-2-methyl-benzoylamide; sodium salt]"
19,4.82 to 6.30,"O=C(NS(=O)(=O)/C=C/c1ccc(F)cc1F)c1ccc(Cl)cc1Cl [Example 1-8, (E)-2-(2,4-Difluoro-phenyl)-ethenesulfonic acid 2,4-dichloro-benzoylamide]"
20,4.82 to 6.30,"Cc1ccc(C(=O)NS(=O)(=O)/C=C/c2ccc(OC(F)(F)F)cc2)c(Br)c1 [Example 4-37, (E)-2-(4-Trifluoromethoxyphenyl)-ethenesulfonic acid 2-bromo-4-methyl-benzoylamide; sodium salt]"
21,4.82 to 6.30,"COc1cccc(/C=C/S(=O)(=O)NC(=O)c2ccc(Cl)cc2OC)c1 [Example 4-5, (E)-2-(3-Methoxy-phenyl)-ethenesulfonic acid 4-chloro-2-methoxy-benzoylamide; sodium salt]"

row,SMILES,pIC50
1,"COc1ccccc1/C=C/S(=O)(=O)NC(=O)c1ccc(C)cc1C [Example 4-31, (E)-2-(2-Methoxy-phenyl)-ethenesulfonic acid 2,4-dimethyl-benzoylamide; sodium salt]",4.82 to 6.30
